PubChem BioAssay (NCI)
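Following 48 hours of exposure in 96-well plates, responses at five concentrations were used to interpolate endpoints linearly. Here, GI50 denotes the concentration required for 50% inhibition of growth. At the TGI there is no net growth.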

Assays:
Test in all cases: NCI tumour cell line growth inhibition, 48 h
K-562 leukemia = tested on: K-562 leukemia
HCT-15 colon = tested on: HCT-15 colon
NCI-H460 lung = tested on: NCI-H460 lung
OVCAR-3 ovarian = tested on: OVCAR-3 ovarian
HOP-62 NSCLC = tested on: HOP-62 NSCLC
SW-620 colon = tested on: SW-620 colon
SN12C renal = tested on: SN12C renal
SK-MEL-2 melanoma = tested on: SK-MEL-2 melanoma
NCI-H522 lung = tested on: NCI-H522 lung
BT-549 breast = tested on: BT-549 breast

SMILES	GI50 (K-562 leukemia) [µM]	TGI (K-562 leukemia) [µM]	GI50 (HCT-15 colon) [µM]	TGI (HCT-15 colon) [µM]	GI50 (NCI-H460 lung) [µM]	TGI (NCI-H460 lung) [µM]	GI50 (OVCAR-3 ovarian) [µM]	TGI (OVCAR-3 ovarian) [µM]	GI50 (HOP-62 NSCLC) [µM]	TGI (HOP-62 NSCLC) [µM]	GI50 (SW-620 colon) [µM]	TGI (SW-620 colon) [µM]	GI50 (SN12C renal) [µM]	TGI (SN12C renal) [µM]	GI50 (SK-MEL-2 melanoma) [µM]	TGI (SK-MEL-2 melanoma) [µM]	GI50 (NCI-H522 lung) [µM]	TGI (NCI-H522 lung) [µM]	GI50 (BT-549 breast) [µM]	TGI (BT-549 breast) [µM]
COc1cc2c(cc1OCCNC(=O)/C=C1\C[C@H]3C=Nc4cc(OCc5ccccc5)c(OC)cc4C(=O)N3C1)N=C[C@@H]1CCCN1C2=O	2.78	13.6	37.4	> 100	13.6	30.6	2.19	5.49	4.27	23.6	5.36	24.7	2.68	15.8	1.58	3.56	1.62	3.88	17	> 100
COC1=CC(c2ccc[nH]2)=N/C1=C\c1[nH]c(C)c(C(=O)CCCCCCCCC(=O)O[C@H]2CC[C@H]3C4CCc5cc(O)ccc5C4CC[C@]23C)c1C (stereo not given in full)	0.267	> 50	1.55	> 50	0.536	> 50	0.493	15	0.483	10.2	0.197	> 50	0.6	> 50	0.247	1.95	0.277	> 33.9	0.618	> 45.1
O=C(Nc1n[nH]c2cc(-c3cc(F)ccc3F)ccc12)C1CC1	7.47	> 25	8.39	> 25	8.81	> 25	9.3	24.2	15.2	> 25	10.7	> 25	15.7	> 25	12.2	> 25	9.15	> 25	> 21.7	> 25
CC(C)(C)C[C@H]1N[C@@H](C(=O)NC2CCC(O)CC2)[C@H](c2cccc(Cl)c2F)[C@@]12C(=O)Nc1cc(Cl)ccc12 (stereo not given in full)	4.15	18.7	3.92	18.2	0.678	13.4	8.68	21	11.5	27.7	12.3	29.4	6.26	21.2	4.93	19.7	7.89	22.9	3.8	14.1
C=C1C(=O)O[C@@H]2/C=C(/C)[C@@H](OC(C)=O)C/C=C(\C)C(O)[C@@H](OC(=O)/C(C)=C\C)C12 (stereo not given in full)		73.3		30.3		> 100		> 100		> 100		30.1		43.1		76.8		32.3		44.3
COc1cc(O)ccc1C(=S)SC		> 100		> 100		> 100		> 100		> 100		> 100		9.56		> 100		> 100		> 100
O=c1c(-c2ccc3c(c2)OCO3)coc2c3c(ccc12)OCO3		> 100		> 100		32.1		> 100		38.2		> 100		> 100		> 100		37.5		32.6
CCCCCCCC(=O)OCC/C=C/C1OC1C1OC(=O)/C=C\C=C\C(=O)N(C(C)=O)C(=O)/C=C(/C)CCC2OC2C1OC(=O)NC(C)=O (stereo not given)	4.78	> 25	5.13	18.4	11.4	> 25	4.07	8.4	7.45	> 25	6.42	24	7.29	> 25	6.46	20.4	3.78	8.16	6.43	> 25
Cc1ccc(/C(=N/Nc2ccc([N+](=O)[O-])cc2)Sc2cc(Cl)c(C)cc2S(N)(=O)=O)cc1	3.11	> 38.4	3.64	> 49.6	2.55	9.07	1.22	2.61	2.35	5.34	2.55	10.5	1.69	3.95	4.9	20	4.96	> 28.2	10.4	26
O=C(Nc1sc2c(c1C(=O)O)CCCC2)c1ccco1	23.9	> 50	30.6	> 50	23.5	> 50	> 50	> 50	> 50	> 50	> 50	> 50	8.63	42	> 50	> 50	> 50	> 50	> 50	> 50
